30 compounds from patent US7495104B2, “Quinoline or quinazoline derivatives inhibiting auto-phosphorylation of fibroblast growth factor receptors” (Kirin Beer Kabushiki Kaisha, priority 2001, dated 2009) can be followed below.

Counter-ions that a name gives are not always drawn. Bounds are passed on as bounds.

The target of the experiment is Bek (Homo sapiens, UniProt P21802). Description: Inhibitory activity against Bek-autophosphorylation using ELISA method in OCUM-2MD3 cells. The class given is cell-based. The settings on record: 1 hr with compound, read-out: IC50 (concentration necessary for inhibiting 50% of Bek-phosphorylation). An outline of the steps: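 OCUM-2MD3 human scirrhous gastric cancer cells in 0.1% FCS were exposed to compound for 1 hr at 37° C, then lysed. Phospho-tyrosine proteins were captured with anti-phosphotyrosine antibody, probed with anti-Bek antibody and peroxidase read-out (A450). Positive control (1000 nM) set 0%, untreated 100%; IC50 from multi-level dilutions.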
Chain of Bek (P21802 431-767 limits assumed): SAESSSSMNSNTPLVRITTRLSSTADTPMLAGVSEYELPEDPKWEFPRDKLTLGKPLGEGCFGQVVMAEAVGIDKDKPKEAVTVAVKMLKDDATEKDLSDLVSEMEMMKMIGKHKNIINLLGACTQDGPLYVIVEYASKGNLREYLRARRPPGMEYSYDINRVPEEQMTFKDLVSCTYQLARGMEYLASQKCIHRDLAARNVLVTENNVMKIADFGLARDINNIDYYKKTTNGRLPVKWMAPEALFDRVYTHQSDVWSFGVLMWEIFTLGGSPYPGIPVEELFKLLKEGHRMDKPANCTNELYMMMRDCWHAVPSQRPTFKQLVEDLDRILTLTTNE
(In general: ELISA stands for enzyme-linked immunosorbent assay.)
For the compound `COc1cc2c(Oc3ccc(Nc4ccc(C(C)(C)C)cc4)cc3)ccnc2cc1OC[C@@H](O)CN1CCOCC1` [Compound 71, (s)-1-{4-[4-(4-Tert-butylphenylamino)phenoxy]-6-methoxyquinolin-7-yloxy}-3-morpholin-4-ylpropan-2-ol], the IC50 amounted to 61.1 nM. Consider `COc1cc2c(Oc3ccc(NC(=O)NCCC(C)(C)C)c(Cl)c3)ccnc2cc1OCCCNCCO` [Compound 334, 1-(2-Chloro-4-{7-[3-(2-hydroxy-ethylamino)-propoxy]-6-methoxy-quinolin-4-yloxy}-phenyl)-3-(3,3-dimethyl-butyl)-urea], for which the IC50 came out at 16.5 nM.

In the case of `COc1cc2nccc(Oc3ccc(NC(=O)NCCC(C)(C)C)cc3)c2cc1OCCCN1CCC(O)CC1` [Compound 322, 1-(3,3-Dimethyl-butyl)-3-(4-{6-[3-(4-hydroxy-piperidin-1-yl)-propoxy]-7-methoxy-quinolin-4-yloxy}-phenyl)-urea], the IC50 was found to be 247 nM.

Turning to `COc1cc2c(Oc3ccc(Nc4ccc(C(C)(C)C)cc4)c(F)c3)ccnc2cc1OCCN1CCC(CO)CC1` [Compound 288, [1-(2-{4-[4-(4-Tert-butyl-phenylamino)-3-fluoro-phenoxy]-6-methoxy-quinolin-7-yloxy}-ethyl)-piperidin-4-yl]-methanol], the IC50 amounted to 110 nM. In the case of `COc1cc2c(Oc3ccc(NC(=O)NCCC(C)(C)C)cc3)ccnc2cc1OCCCN1CCN(C)CC1` [Compound 156, 1-(3,3-Dimethyl-butyl)-3-(4-{6-methoxy-7-[3-(4-methyl-piperazin-1-yl)-propoxy]-quinolin-4-yloxy}-phenyl)-urea hydrochloride] it was 19.1 nM. Consider `COc1cc2c(Oc3ccc(Nc4ccc(C(C)(C)C)cc4)cc3)ccnc2cc1OCCN(CCO)CCO` [Compound 349, 2-[(2-{4-[4-(4-Tert-butyl-phenylamino)-phenoxy]-6-methoxy-quinolin-7-yloxy}-ethyl)-(2-hydroxy-ethyl)-amino]-ethanol hydrochloride], for which the IC50 was found to be 95.9 nM. In the case of `COc1cc2nccc(Oc3ccc(NC(=O)NCCC(C)(C)C)cc3F)c2cc1OCCCN1CC(C)OC(C)C1` (stereo not drawn) [Compound 231, 1-(3,3-Dimethyl-butyl)-3-(4-{6-[3-(2,6-dimethyl-morpholin-4-yl)-propoxy]-7-methoxy-quinolin-4-yloxy}-3-fluoro-phenyl)-urea] it was 113 nM.

In the case of `COc1cc2c(Oc3ccc(Nc4ccc(C(C)(C)C)cc4)cc3)ccnc2cc1OCC(O)CN1CCC(N2CCCCC2)CC1` (stereo not drawn) [Compound 258, 1-[1,4′]Bipiperidineyl-1′-yl-3-{4-[4-(4-tert-butyl-phenylamino)-phenoxy]-6-methoxy-quinolin-7-yloxy}-propan-2-ol], the IC50 was found to be 110 nM. In the case of `COc1cc2c(Oc3ccc(Nc4ccc(C(C)(C)C)cc4)cc3)ccnc2cc1OCCN1CCC(O)CC1` [Compound 82, 1-(2-{4-[4-(4-Tert-butylphenylamino)phenoxy]-6-methoxy-quinolin-7-yloxy}ethyl)piperidin-4-ol] it was 70.1 nM. On to `COc1cc2c(Oc3ccc(Nc4ccc(C(C)(C)C)cc4)cc3)ccnc2cc1OCCNC1(CO)CCCC1` [Compound 350, [1-(2-{4-[4-(4-Tert-butyl-phenylamino)-phenoxy]-6-methoxy-quinolin-7-yloxy}-ethylamino)-cyclopenthyl]-methanol], for which the IC50 is 334 nM. For the compound `COc1cc2c(Oc3ccc(NC(=O)NCCC(C)(C)C)cc3)ccnc2cc1OCC(O)CN1CCC(c2ccccc2)CC1` (stereo not drawn) [Compound 252, 1-(3,3-Dimethyl-butyl)-3-(4-{7-[2-hydroxy-3-(4-phenyl-piperidin-1-yl)-propoxy]-6-methoxy-quinolin-4-yloxy}-phenyl)-urea], the IC50 was determined as 42.6 nM. In the case of `COCC1CCN(CCOc2cc3nccc(Oc4ccc(Nc5ccc(C(C)(C)C)cc5)cc4)c3cc2OC)CC1` [Compound 281, (4-Tert-butyl-phenyl)-(4-{6-methoxy-7-[2-(4-methoxymethyl-piperidin-1-yl)-ethoxy]-quinolin-4-yloxy}-phenyl)-amine] it was 244 nM; in that of `COc1cc2c(Oc3ccc(Nc4ccc(C(C)(C)C)cc4)c(Cl)c3)ccnc2cc1OCCN(CCO)CCO` [Compound 337, 2-[(2-{4-[4-(4-Tert-butyl-phenylamino)-3-chloro-phenoxy]-6-methoxy-quinolin-7-yloxy}-ethyl)-(2-hydroxy-ethyl)-amino]-ethanol], 252 nM. In the case of `COc1cc2c(Oc3ccc(NC(=O)NCCC(C)(C)C)c(Cl)c3)ccnc2cc1OCC1CCNCC1` [Compound 168, 1-{2-Chloro-4-[6-methoxy-7-(piperidin-4-ylmethoxy)-quinolin-4-yloxy]-phenyl}-3-(3,3-dimethyl-butyl)-urea] it was 24 nM; in that of `COc1cc2c(Oc3ccc(NC(=O)NCCC(C)(C)C)cc3)ccnc2cc1OCCCN1CCC(CO)CC1` [Compound 265, 1-(3,3-Dimethyl-butyl)-3-(4-{7-[3-(4-hydroxymethyl-piperidin-1-yl)-propoxy]-6-methoxy-quinolin-4-yloxy}-phenyl)-urea], less than 10 nM.

`COc1cc2c(Oc3ccc(Nc4ccc(C(C)(C)C)cc4)cc3)ccnc2cc1OCCCN1CCN(C)CC1` [Compound 35, (4-Tert-butylphenyl)-(4-{6-methoxy-7-[3-(4-methylpiperazin-1-yl)propoxy]quinolin-4-yloxy}phenyl)amine]: the IC50 amounted to 220 nM. In the case of `COc1cc2c(Oc3ccc(NC(=O)NCCC(C)(C)C)c(Cl)c3)ccnc2cc1OCCCN(C)CCO` [Compound 178, 1-[2-Chloro-4-(7-{3-[(2-hydroxy-ethyl)-methyl-amino]-propoxy}-6-methoxy-quinolin-4-yloxy)-phenyl]-3-(3,3-dimethyl-butyl)-urea] it was less than 10 nM; in that of `COc1cc2c(Oc3ccc(NC(=O)NCCC(C)(C)C)cc3)ccnc2cc1OCCCN1CCC(N2CCCC2)CC1` [Compound 249, 1-(3,3-Dimethyl-butyl)-3-(4-{6-methoxy-7-[3-(4-pyrrolidin-1-yl-piperidin-1-yl)-propoxy]-quinolin-4-yloxy}-phenyl)-urea], less than 10 nM.

For `COc1cc2nccc(Oc3ccc(Nc4ccc(C(C)(C)C)cc4)cc3OC)c2cc1OC` [Compound 15, (4-Tert-butylphenyl)-[4-(6,7-dimethoxyquinolin-4-yloxy)-3-methoxyphenyl]amine], the IC50 was found to be 430 nM. In the case of `CCN(CC)CCCOc1cc2nccc(Oc3ccc(NC(=O)NCCC(C)(C)C)c(Cl)c3)c2cc1OC` [Compound 183, 1-{2-Chloro-4-[7-(3-diethylamino-propoxy)-6-methoxy-quinolin-4-yloxy]-phenyl}-3-(3,3-dimethyl-butyl)-urea] it was 15.4 nM; in that of `COc1cc2c(Oc3ccc(Nc4ccc(C(C)(C)C)cc4)c(F)c3)ccnc2cc1OCCCN1CCC(CO)CC1` [Compound 290, [1-(3-{4-[4-(4-Tert-butyl-phenylamino)-3-fluoro-phenoxy]-6-methoxy-quinolin-7-yloxy}-propyl)-piperidin-4-yl]-methanol], 233 nM. In the case of `COc1cc2c(Oc3ccc(NC(=O)NCCC(C)(C)C)cc3)ccnc2cc1OCCCN1CC(C)CC(C)C1` (stereo not drawn) [Compound 245, 1-(3,3-Dimethyl-butyl)-3-(4-{7-[3-(3,5-dimethyl-piperidin-1-yl)-propoxy]-6-methoxy-quinolin-4-yloxy}-phenyl)-urea] it was 16.5 nM. In the case of `COc1cc2c(Oc3ccc(Nc4ccc(C(C)(C)C)cc4)cc3F)ccnc2cc1OCCCN1CCC(CCO)CC1` [Compound 272, 2-[1-(3-{4-[4-(4-Tert-butyl-phenylamino)-2-fluoro-phenoxy]-6-methoxy-quinolin-7-yloxy}-propyl)-piperidin-4-yl]-ethanol] it was 151 nM. As for `COc1cc2c(Oc3ccc(Nc4ccc(C(C)(C)C)cc4)cc3)ccnc2cc1OCCN1CCC(CO)CC1` [Compound 81, [1-(2-{4-[4-(4-Tert-butylphenylamino)phenoxy]-6-methoxy-quinolin-7-yloxy}ethyl)piperidin-4-yl]methanol], the IC50 amounted to 10.1 nM. In the case of `COc1cc2nccc(Oc3ccc(NC(=O)NCCC(C)(C)C)cc3)c2cc1OCCCCN1CCOCC1` [Compound 227, 1-(3,3-Dimethyl-butyl)-3-{4-[7-methoxy-6-(4-morpholin-4-yl-butoxy)-quinolin-4-yloxy]-phenyl}-urea] it was 23.9 nM. With `COc1cc2c(Oc3ccc(NC(=O)NCCC(C)(C)C)c(Cl)c3)ccnc2cc1OC[C@@H](O)CN1CCOCC1` [Compound 197, 1-{2-Chloro-4-[7-(2-hydroxy-3-morpholin-4-yl-propoxy)-6-methoxy-quinolin-4-yloxy]-phenyl}-3-(3,3-dimethyl-butyl)-urea] the figure was less than 10 nM; with `COc1cc2c(Oc3ccc(Nc4ccc(C(C)(C)C)cc4)c(Cl)c3)ccnc2cc1OCCN1CCC(O)CC1` [Compound 278, 1-(2-{4-[4-(4-Tert-butyl-phenylamino)-3-chloro-phenoxy]-6-methoxy-quinolin-7-yloxy}-ethyl)-piperidin-4-ol], 1120 nM; with `COc1cc2c(Oc3ccc(NC(=O)NCCC(C)(C)C)c(Cl)c3)ccnc2cc1OCC1CCN(C)CC1` [Compound 169, 1-{2-Chloro-4-[6-methoxy-7-(1-methyl-piperidin-4-ylmethoxy)-quinolin-4-yloxy]-phenyl}-3-(3,3-dimethyl-butyl)-urea], 25.2 nM. In the case of `COc1cc2c(Oc3ccc(NC(=O)NCCC(C)(C)C)c(F)c3)ccnc2cc1OCCN(C)CCO` [Compound 330, 1-(3,3-Dimethyl-butyl)-3-[2-fluoro-4-(7-{2-[(2-hydroxy-ethyl)-methyl-amino]-ethoxy}-6-methoxy-quinolin-4-yloxy)-phenyl]-urea] it was 17.8 nM. As for `COc1cc2c(Oc3ccc(Nc4ccc(C(C)(C)C)cc4)cc3)ccnc2cc1OCCN1CCC(OC)CC1` [Compound 280, (4-Tert-butyl-phenyl)-(4-{6-methoxy-7-[2-(4-methoxy-piperidin-1-yl)-ethoxy]-quinolin-4-yloxy}-phenyl)-amine], the IC50 stood at 278 nM.
